Test results as given in the supplement of paper PMC10307832.

Assays:
Test in all cases: relative viability (nuclei count vs DMSO), 5 days (fraction); higher = more cells survive
NCI-H1793 = system: NCI-H1793
Procedure, shortened: (§1)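 Lung cancer cell lines in 1536-well plates got either a single drug or a fixed anchor-drug dose together with five library-drug doses (not always all listed) in √10 steps, by pin tool, on the day after seeding. Nuclei were counted after 5 days, and relative viability is the treated-to-vehicle ratio of nuclei counts. Values are medians of duplicate plates.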

NCI-H1944 = system: NCI-H1944
Procedure, shortened: as §1

NCI-H2087 = system: NCI-H2087
Procedure, shortened: as §1

NCI-H2228 = system: NCI-H2228
Procedure, shortened: as §1

NCI-H2405 = system: NCI-H2405
Procedure, shortened: as §1

NCI-H3122 = system: NCI-H3122
Procedure, shortened: as §1

NCI-H322M = system: NCI-H322M
Procedure, shortened: as §1

NCI-H647 = system: NCI-H647
Procedure, shortened: as §1

NCI-H727 = system: NCI-H727
Procedure, shortened: as §1

RERF-LC-KJ = system: RERF-LC-KJ
Procedure, shortened: as §1

SK-LU-1 = system: SK-LU-1
Procedure, shortened: as §1

Nc1ccn([C@@H]2O[C@H](CO)[C@@H](O)[C@@H]2O)c(=O)n1 [Cytarabine] + COc1cccc2cc(-c3nc([C@H]4CC[C@H](C(=O)O)CC4)n4ncnc(N)c34)[nH]c12 [OSI-027] (partner 0.5 µM)
relative viability (NCI-H1793; first compound 0.005 µM): 0.296 | relative viability (NCI-H1793; first compound 0.01581 µM): 0.285 | relative viability (NCI-H1793; first compound 0.05 µM): 0.245 | relative viability (NCI-H1793; first compound 0.1581 µM): 0.198 | relative viability (NCI-H1793; first compound 0.5 µM): 0.197 | relative viability (NCI-H1944; first compound 0.005 µM): 0.313 | relative viability (NCI-H1944; first compound 0.01581 µM): 0.239 | relative viability (NCI-H1944; first compound 0.05 µM): 0.214 | relative viability (NCI-H1944; first compound 0.1581 µM): 0.155 | relative viability (NCI-H1944; first compound 0.5 µM): 0.133 | relative viability (NCI-H2087; first compound 0.005 µM): 0.406 | relative viability (NCI-H2087; first compound 0.01581 µM): 0.485 | relative viability (NCI-H2087; first compound 0.05 µM): 0.416 | relative viability (NCI-H2087; first compound 0.1581 µM): 0.192 | relative viability (NCI-H2087; first compound 0.5 µM): 0.121 | relative viability (NCI-H2228; first compound 0.005 µM): 0.404 | relative viability (NCI-H2228; first compound 0.01581 µM): 0.209 | relative viability (NCI-H2228; first compound 0.05 µM): 0.244 | relative viability (NCI-H2228; first compound 0.1581 µM): 0.097 | relative viability (NCI-H2228; first compound 0.5 µM): 0.0984 | relative viability (NCI-H2405; first compound 0.005 µM): 0.62 | relative viability (NCI-H2405; first compound 0.01581 µM): 0.558 | relative viability (NCI-H2405; first compound 0.05 µM): 0.434 | relative viability (NCI-H2405; first compound 0.1581 µM): 0.394 | relative viability (NCI-H2405; first compound 0.5 µM): 0.325 | relative viability (NCI-H3122; first compound 0.005 µM): 0.953 | relative viability (NCI-H3122; first compound 0.01581 µM): 0.873 | relative viability (NCI-H3122; first compound 0.05 µM): 0.811 | relative viability (NCI-H3122; first compound 0.1581 µM): 0.461 | relative viability (NCI-H3122; first compound 0.5 µM): 0.125 | relative viability (NCI-H322M; first compound 0.005 µM): 0.455 | relative viability (NCI-H322M; first compound 0.01581 µM): 0.392 | relative viability (NCI-H322M; first compound 0.05 µM): 0.325 | relative viability (NCI-H322M; first compound 0.1581 µM): 0.377 | relative viability (NCI-H322M; first compound 0.5 µM): 0.269 | relative viability (NCI-H647; first compound 0.005 µM): 0.479 | relative viability (NCI-H647; first compound 0.01581 µM): 0.33 | relative viability (NCI-H647; first compound 0.05 µM): 0.271 | relative viability (NCI-H647; first compound 0.1581 µM): 0.105 | relative viability (NCI-H647; first compound 0.5 µM): 0.0867 | relative viability (NCI-H727; first compound 0.005 µM): 0.589 | relative viability (NCI-H727; first compound 0.01581 µM): 0.558 | relative viability (NCI-H727; first compound 0.05 µM): 0.491 | relative viability (NCI-H727; first compound 0.1581 µM): 0.38 | relative viability (NCI-H727; first compound 0.5 µM): 0.347 | relative viability (RERF-LC-KJ; first compound 0.005 µM): 0.461 | relative viability (RERF-LC-KJ; first compound 0.01581 µM): 0.477 | relative viability (RERF-LC-KJ; first compound 0.05 µM): 0.5 | relative viability (RERF-LC-KJ; first compound 0.1581 µM): 0.391 | relative viability (RERF-LC-KJ; first compound 0.5 µM): 0.297 | relative viability (SK-LU-1; first compound 0.005 µM): 0.275 | relative viability (SK-LU-1; first compound 0.01581 µM): 0.294 | relative viability (SK-LU-1; first compound 0.05 µM): 0.297 | relative viability (SK-LU-1; first compound 0.1581 µM): 0.193 | relative viability (SK-LU-1; first compound 0.5 µM): 0.199
